A word on the kinact: it is the rate constant of inactivation at saturating inhibitor.

Series [1] has as its system rat primary cortical neurons. Kind of series: Neuronal viability by resazurin assay. Particulars: 24 h. It is filed as cell-based. How it is done:
DMSO was used as a control. At the end of the treatment, neuronal viability was measured by resazurin assay. Results are shown as a percent of DMSO control (±SEM) (N=3).
Background: Alamar Blue is a resazurin reagent that responds to reducing activity.

In the next series the target is hTG6 (Homo sapiens, UniProt O95932). Put plainly: Colorimetric transamidase activity assay (AL5 substrate), hTG6. It is filed as biochemical. How it is done: Selectivity of certain irreversible inhibitors over other members of the transglutaminase family was assessed. […] Inhibitors were tested using a continuous colorimetric assay (Leblanc, A. et al., Biochemistry (2001), 40 (28): 8335-8342) for hTG1 and hTG6 and a commercially available continuous fluorescent assay that utilizes a peptidic FRET quenched substrate (Oertel, K. et al., Anal. Biochem. (2007), 367 (2): 152-158; Király, R. et al., Amino Acids (2016), 48 (1): 31-40) for the other transglutaminases, FXIIIa and hTG3. The rate constant of enzyme inactivation (kobs) for a specific concentration of inhibitor was obtained using Kitz and Wilson conditions (Kitz, R. et al., J. Biol. Chem. (1962), 237: 3245-49). Inhibitor concentrations were adjusted to account for competition with substrates in each enzymatic reaction.
Chain of hTG6 (O95932 whole entry): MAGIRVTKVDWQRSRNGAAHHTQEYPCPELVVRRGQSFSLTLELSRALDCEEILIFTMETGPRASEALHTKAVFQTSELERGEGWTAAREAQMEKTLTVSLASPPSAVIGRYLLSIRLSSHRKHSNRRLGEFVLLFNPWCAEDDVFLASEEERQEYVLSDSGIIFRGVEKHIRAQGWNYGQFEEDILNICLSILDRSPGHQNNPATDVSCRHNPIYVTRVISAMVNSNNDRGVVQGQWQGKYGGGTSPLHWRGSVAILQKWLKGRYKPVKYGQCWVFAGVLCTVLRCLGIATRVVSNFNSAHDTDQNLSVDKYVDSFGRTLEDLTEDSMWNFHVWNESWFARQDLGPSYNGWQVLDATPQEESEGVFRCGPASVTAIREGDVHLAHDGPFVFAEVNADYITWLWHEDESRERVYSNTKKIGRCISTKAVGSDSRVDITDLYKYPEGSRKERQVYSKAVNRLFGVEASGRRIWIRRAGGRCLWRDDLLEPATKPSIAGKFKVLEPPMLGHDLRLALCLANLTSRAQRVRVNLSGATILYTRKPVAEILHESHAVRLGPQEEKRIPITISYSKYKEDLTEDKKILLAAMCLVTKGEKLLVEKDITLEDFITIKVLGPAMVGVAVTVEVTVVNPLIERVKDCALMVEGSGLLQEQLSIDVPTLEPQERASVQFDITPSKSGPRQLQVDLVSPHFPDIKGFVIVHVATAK
In Vitro Assays. Colorimetric transamidase activity assay.

In the next series the test system is SCC-13 cells. Put plainly: Spheroid formation / survival assay, SCC-13 cells (ECS cells). The class given is cell-based, human. Particulars: for spheroid formation (cancer stem cell survival): 8 d spheroids, 20 μM, 48 h. How it is done:
Spheroid formation assay. Cells, maintained as monolayer cultures in growth medium consisting of DMEM (Invitrogen, Frederick, Md.) supplemented with 4.5 mg/ml D-glucose, […] L-glutamine, […] sodium pyruvate, and 5% fetal calf serum, were harvested, collected by centrifugation, and resuspended in spheroid medium comprising DMEM/F12 (1:1) (DMT-10-090-CV, Mediatech Inc., Manassas, Va.) supplemented with 2% B27 serum-free supplement (17504-044, Invitrogen, Frederick, Md.), 20 ng/ml EGF (E4269, Sigma, St. Louis, Mo.), 0.4% bovine serum albumin (B4287, Sigma) and 4 μg/ml insulin (19278 Sigma, St. Louis, Mo.). The cells (40,000) were plated in 9.6 cm^2 wells in Costar six well ultra-low attachment cluster dishes (4371, Corning, Tewksbury, Mass.). Spheroid size and number was monitored with time in culture as previously described (Adhikary, G. et al., PLoS One 8:e84324, 2013).
Spheroid formation assay. Spheroid formation assays were exactly as outlined previously (Adhikary, G. et al., PLoS ONE 8:e84324, 2013), except that the spheroids were grown in six well ultra-low attachment Costar cluster dishes (4371, Corning, Tewksbury, Mass.).
Spheroid formation assay. Spheroid formation assays were as reported previously (Adhikary, G. et al., PLoS One 8:e84324, 2013), except that the spheroids were grown in 6-well ultralow attachment Costar cluster dishes (Corning).

The test system of a further series is TS565 neurospheres. Put plainly: Neurosphere growth, TS565 (proneural). Conditions: 25 μM, 2 weeks. It is filed as cell-based, human. From the text:
Neurosphere cultures. TS543, TS565 and TS676, which represent the mesenchymal, proneural and classical glioblastoma subtypes respectively, based on transcriptomic and genomic analysis, were obtained from C. Brennan through the Monoclonal Antibody Core Facility at Memorial Sloan Kettering Cancer Center (Brennan, C. et al., PLoS One 4(11):e7752, 2009; Pyonteck, S. M. et al., Nature Med. 19(10):1264-72, 2013; Rohle, D. et al., Science 340(6132):626-30, 2013) and maintained in NeuroCult™ NS-A Proliferation Kit (Human) (Stem Cell Technologies) according to manufacturer's instructions. (NeuroCult Medium was supplemented with 20 ng/mL FGF, 50 ng/mL EGF and 0.0002% Heparin). To prevent neurosphere attachment to the bottom of the cell culture plates, Poly 2-hydroxyethyl methacrylate (PHM) was used. 6-well plates were coated with 1 mL/well of 1% PHM in ethanol (w/v). The plates were air dried in a sterile environment overnight and washed once with PBS and they were kept in the fridge in a sterile environment until use. For passaging, neurospheres were triturated according to instructions and 5,000 cells were seeded in each well in 2 mL medium. For treatments with TG2 inhibitors, cells were inoculated in medium containing 25 μM TG2 inhibitor or DMSO control. 200 μL of medium containing the 25 μM TG2 inhibitor or DMSO was added every other day. At the end of 2 weeks, 20-50 random microscopic images were captured for each group. The average volume of each sphere image was determined using Image J by a person blinded for neurosphere lines and treatments and volumes were calculated from the area data and used for comparison.

The next series has as its target T1, TG2 (Homo sapiens, UniProt P21980).
T1 sequence (P21980 1-687): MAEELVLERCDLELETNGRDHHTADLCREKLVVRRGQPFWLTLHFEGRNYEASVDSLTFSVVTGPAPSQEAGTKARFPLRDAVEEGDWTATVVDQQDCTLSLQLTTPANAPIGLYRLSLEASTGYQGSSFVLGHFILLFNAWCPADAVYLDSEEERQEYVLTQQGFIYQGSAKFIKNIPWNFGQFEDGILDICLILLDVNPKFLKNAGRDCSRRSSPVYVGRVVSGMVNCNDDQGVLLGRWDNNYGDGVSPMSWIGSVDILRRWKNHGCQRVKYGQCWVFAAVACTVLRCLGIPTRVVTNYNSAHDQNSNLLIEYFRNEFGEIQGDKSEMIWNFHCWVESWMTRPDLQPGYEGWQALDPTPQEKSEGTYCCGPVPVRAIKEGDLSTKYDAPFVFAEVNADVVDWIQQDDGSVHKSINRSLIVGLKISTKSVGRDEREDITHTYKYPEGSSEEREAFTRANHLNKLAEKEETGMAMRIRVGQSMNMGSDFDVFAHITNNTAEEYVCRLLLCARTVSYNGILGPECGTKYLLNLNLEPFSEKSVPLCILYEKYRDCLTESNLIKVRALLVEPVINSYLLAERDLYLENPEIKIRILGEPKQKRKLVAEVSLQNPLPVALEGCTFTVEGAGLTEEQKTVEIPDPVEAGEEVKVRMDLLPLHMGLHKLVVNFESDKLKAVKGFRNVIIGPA
Kind of series: Colorimetric transamidase activity assay (AL5 substrate), hTG2. It is filed as biochemical.

Description for TG2: In Vitro Assays. Colorimetric transamidase activity assay. The activities of hTG1, hTG2 and hTG6 were measured via a colorimetric assay using the chromogenic substrate Cbz-Glu(γ-p-nitrophenyl ester)Gly (AL5). The assay was conducted at 25° C. in 100 mM MOPS buffer (pH 6.5) containing 3.0 mM CaCl2 and 50 μM EDTA. […] A stock solution of AL5 was prepared in DMSO such that the final concentration of this co-solvent was constant at 2.5% v/v. Stock solutions of the inhibitors were made in the buffer system previously described. The reaction was initiated with the addition of 40-60 mU/mL of the respective enzyme (0.10 μM hTG1, 0.25 μM hTG2 or 0.32 μM hTG6). Product formation was monitored at 405 nm in a polystyrene 96-well microplate using a BioTek Synergy 4 plate reader. […] Observed first-order rate constants of inactivation (kobs) were determined from non-linear regression fit to a mono-exponential model (Equation 1) of the observed absorbance of the enzymatic hydrolysis product, p-nitrophenolate (pNP). […] Experiments were done in triplicate and variation between repeats was less than 30%.

As to `C=CC(=O)NCCCC[C@H](NC(=O)OCc1ccccc1)C(=O)NCCOCCOCCNS(=O)(=O)c1cccc2c(N(C)C)cccc12` [NC9], in series [1], the “neuronal viability / tolerability” value was “well tolerated up to 10 μM concentration”. Further, the “kobs (10^−3 min^−1), TG6” value at hTG6 (Table 9, Kitz and Wilson conditions) was 6.16 ± 0.14 10^−3 min^−1. Also, the “spheroid number, formation from single cells” value in the series on SCC-13 cells (10 or 20 μM single addition, 0-14 days, after day eight) was “selectively declined”. The “spheroid formation (cancer stem cell survival)” value (“spheroid formation” for short) in the series on SCC-13 cells was “inhibited spheroid formation”. Further, in the series with SCC-13 cells (spheroids grown for 8 days, then treated), the “spheroid number, pre-formed spheroids” value is recorded as “reduced spheroid number”. In the series on TS565 neurospheres, the “sphere growth, TS565” value is “suppressed sphere growth”. In addition, at TG2 (Table 9, Kitz and Wilson conditions, inhibitor concentration adjusted for competition with substrate), the “kobs (10^−3 min^−1), TG2” value was 390 ± 49 10^−3 min^−1.
`C=CC(=O)NCCCC[C@H](NC(=O)OCc1ccccc1)C(=O)N1CCN(S(=O)(=O)c2cccc3c(N(C)C)cccc23)CC1` [VA4, (S)-benzyl(6-acrylamido-1-(4-((5-(dimethylamino)naphthalen-1-yl)sulfonyl)piperazin-1-yl)-1-oxohexan-2-yl)carbamate]: the “neuronal viability / tolerability” value in series [1] is “well tolerated up to 10 μM concentration”. In addition, the “inhibition of hTG6” value against hTG6 is listed as “no inhibition was observed”. The “spheroid formation” value in the series on SCC-13 cells is “inhibited spheroid formation”. The “sphere growth, TS565” value with TS565 neurospheres is recorded as “suppressed sphere growth”. Moreover, the “reduction in the inhibition binding constant” value on TG2 (compared to NC9) is reported as “greater than two-fold reduction”.
Regarding `C=CC(=O)NCCCC[C@H](NC(=O)OCc1ccccc1)C(=O)N1CCN(C(=O)c2cc3ccc(O)cc3oc2=O)CC1` [VA5, (S)-Benzyl(6-acrylamido-1-(4-(7-hydroxy-2-oxo-2H-chromene-3-carbonyl)piperazin-1-yl)-1-oxohexan-2-yl)carbamate], the “neuronal viability / tolerability” value in series [1] is reported as “well tolerated up to 10 μM concentration”. Also, the “spheroid formation” value with SCC-13 cells is reported as “inhibited spheroid formation”. In addition, in the series with TS565 neurospheres, the “sphere growth, TS565” value is recorded as “only mildly suppressive”. In addition, the kinact on TG2 (Table 8, read-out: kinact (converted)) is 0.0115 s⁻¹. The kinact/KI on TG2 (read-out: kinact/KI (10^3M^−1 min^−1), Table 8) is 1040 M⁻¹ s⁻¹.
